Experimental data from patent US6958402B2, “3-(imidazolyl)-2-alkoxypropanoic acids” (Pfizer, Inc., priority 2002, dated 2005).
Where a name gives a salt, the structure may show the parent alone.

Tests used:
[1] = biological target: T1, TAFIa (activated human TAFI) (Homo sapiens, UniProt Q96IY4); assay: Assay for TAFIa inhibition (Ki determination, FAAL substrate hydrolysis); format: biochemical; details: Ki calculated from IC50 with Cheng-Prusoff equation; substrate furylacryloyl-alanyl-lysine, 24° C.; read-out: Ki (TAFla)
T1 sequence (Q96IY4 115-423): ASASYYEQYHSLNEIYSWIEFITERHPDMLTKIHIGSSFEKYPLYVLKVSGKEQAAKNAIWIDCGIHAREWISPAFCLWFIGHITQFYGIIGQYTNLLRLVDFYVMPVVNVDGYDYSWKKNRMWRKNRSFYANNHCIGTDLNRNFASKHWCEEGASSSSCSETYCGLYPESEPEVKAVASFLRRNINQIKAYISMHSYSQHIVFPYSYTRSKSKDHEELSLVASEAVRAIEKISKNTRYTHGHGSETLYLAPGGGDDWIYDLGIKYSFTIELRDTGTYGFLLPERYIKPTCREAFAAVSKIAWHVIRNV
Description: The compounds are incubated with activated TAFI and a standard substrate for TAFIa, the rate of hydrolysis of the substrate is determined and compared to the rate of hydrolysis in the absence of the compounds, and the amount of inhibition expressed in terms of Ki.
Human TAFI (recombinant or purified) was activated by incubating 20 μl of stock solution (360 μg/ml) with 10 μl of human thrombin (10NIH units/ml), 10 μl of rabbit thrombomodulin (30 μg/ml), 6 μl calcium chloride (50 mM) in 50 μl of 20 mM HEPES (N-[2-hydroxyethyl]piperazine-N-[2-ethanesulfonic acid]) buffer containing 150 mM sodium chloride and 0.01% TWEEN 80 (polyoxyethylene-sorbitan monooleate) pH 7.6 for 20 minutes at 22° C. At the end of the incubation period, thrombin was neutralised by the addition of 10 μL of PPACK (D-Phe-Pro-Arg chloromethyi ketone) (100 nM). The resulting TAFIa. solution was stored on ice for 5 minutes and finally diluted with 175 μl of HEPES buffer.
(§1) A number of different dilutions of the test compound in water were made up. To 20 μl of each dilution was added 150 μl of HEPES buffer and 10 μl of TAFIa, which was then pre-incubated for 15 minutes at 24° C. To each dilution was then added 20 μl furylacryloyl-alanyl-lysine (FAAL) at a standard concentration. Substrate turnover was measured by reading the absorbance of the reaction mixture at 330 nm every 15 seconds for 30 minutes. The reaction was performed at 24° C. and samples were mixed for 3 seconds prior to each absorbance reading.
(§2) A graph of % inhibition against test compound concentration was then plotted; from which was calculated the IC50 value. The Ki value was then calculated using the Cheng-Prusoff equation.
For the first control, the assay was performed as above, but with 20 μl of water rather than a dilution of the test compound.

human CPN = biological target: T2, human CPN (Homo sapiens, UniProt P15169); assay: CPN Ki determination (TAFIa assay with human CPN substituted for TAFIa); format: biochemical
T2 sequence (P15169 21-458): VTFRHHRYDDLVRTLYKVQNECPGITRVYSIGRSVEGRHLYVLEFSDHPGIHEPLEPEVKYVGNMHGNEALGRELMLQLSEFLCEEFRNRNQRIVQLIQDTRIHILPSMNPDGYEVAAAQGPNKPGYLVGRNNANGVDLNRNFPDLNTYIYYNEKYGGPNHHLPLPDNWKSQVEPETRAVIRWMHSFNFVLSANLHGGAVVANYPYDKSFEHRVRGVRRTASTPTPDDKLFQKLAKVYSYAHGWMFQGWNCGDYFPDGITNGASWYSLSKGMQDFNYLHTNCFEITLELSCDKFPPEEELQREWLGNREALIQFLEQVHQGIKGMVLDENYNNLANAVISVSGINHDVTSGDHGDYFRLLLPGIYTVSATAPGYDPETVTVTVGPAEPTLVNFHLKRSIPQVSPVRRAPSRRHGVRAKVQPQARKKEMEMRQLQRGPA
T2 sequence (P22792 22-545 partner): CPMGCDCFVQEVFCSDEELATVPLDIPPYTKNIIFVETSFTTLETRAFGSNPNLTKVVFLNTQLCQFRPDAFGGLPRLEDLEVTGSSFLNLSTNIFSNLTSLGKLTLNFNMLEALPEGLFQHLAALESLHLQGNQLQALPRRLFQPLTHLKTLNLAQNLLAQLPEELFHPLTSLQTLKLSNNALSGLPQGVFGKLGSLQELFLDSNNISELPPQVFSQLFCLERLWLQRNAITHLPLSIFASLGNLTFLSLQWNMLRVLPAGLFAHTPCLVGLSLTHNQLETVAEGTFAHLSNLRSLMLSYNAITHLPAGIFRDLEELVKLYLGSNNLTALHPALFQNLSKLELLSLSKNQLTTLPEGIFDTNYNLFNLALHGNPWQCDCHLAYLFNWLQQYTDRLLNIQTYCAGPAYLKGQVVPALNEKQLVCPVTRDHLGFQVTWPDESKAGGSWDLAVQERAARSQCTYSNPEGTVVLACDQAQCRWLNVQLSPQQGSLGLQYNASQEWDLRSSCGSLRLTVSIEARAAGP
Description: as §1, §2
The selectivity of the compounds of the present invention for TAFIa over CPN was determined by calculating the Ki of the compounds of the present invention for CPN, then comparing it to the Ki for TAFIa. The Ki was calculated using the assay for the calculation of TAFIa Ki, but substituting 10 μl of human CPN for 10 μl of TAFIa.

Compound | Ki [1] | Selectivity for TAFIa over CPN (human CPN; Ki for CPN compared to Ki for TAFIa) | Ki (human CPN; same assay with 10 μl human CPN in place of TAFIa)
C[C@H](CN)O[C@@H](Cc1c[nH]cn1)C(=O)O [Example 51, (2S)-2-{[(1R)-2-Amino-1-methylethyl]oxy}-3-(1H-imidazol-4-yl)propanoic acid] | 26 nM | >380 | > 10000 nM
NCCO[C@@H](Cc1cn(CCC2CCCCC2)cn1)C(=O)O [Example 5, (2S)-(−)-2-(2-Aminoethoxy)-3-[1-(2-cyclohexylethyl)-1H-imidazol-4-yl]propanoic acid] | 10 nM | – | –

Results, then the molecule that gave them:

Ki [1] | Selectivity for TAFIa over CPN (human CPN; Ki for CPN compared to Ki for TAFIa) | Ki (human CPN; same assay with 10 μl human CPN in place of TAFIa) | Compound
10 nM | – | – | NCCOC(Cc1cn(CCc2ccccc2)cn1)C(=O)O (stereo not shown) [Example 4]
9 nM | – | – | C[C@H](CN)O[C@@H](Cc1cn(-c2ccc(OC3CCCCC3)cc2)cn1)C(=O)O [Example 49, (2S)-2-{[(1R)-2-Amino-1-methylethyl]oxy}-3-{1-[4-(cyclohexyloxy)phenyl]-1H-imidazol-4-yl}propanoic acid]
14 nM | – | – | NCCOC(Cc1cn(-c2cccc(Oc3ccccc3)c2)cn1)C(=O)O (stereo not shown) [Example 40, 2-(2-Aminoethoxy)-3-[1-(3-phenoxyphenyl)-1H-imidazol-4-yl]propanoic acid dihydrochloride]
